{"source": "patent EP0679399B1", "about": "“Phosphate diesters for treatment of epidermis proliferative diseases” (Senju Pharmaceutical Co., Ltd., priority 1994, dated 1995)", "key": {"[1]": {"assay": "Acute toxicity (LD50) in rats", "conditions": "rat, in vivo", "protocol": "The present compounds are very safe with extremely low toxic potential and can, therefore, be used with advantage for the purposes of this invention. For example, the LD50 of L-ascorbyl DL-α-tocopheryl phosphate potassium (abbreviation: EPC-K): is ≥ 5 g/kg p.o. (rats) and ≥ 100 mg/kg i.v. (rats)."}, "[2]": {"tested_on": "mouse model of psoriasis vulgaris", "assay": "Mouse model of psoriasis vulgaris induced by TPA (ear epidermal weight gain, ear swelling rate)", "format": "in vivo, ddY mice", "conditions": "for inhibited the epidermal weight gain: relative to control; for Epidermal weight % gain: right vs left auricle, 72 hours after TPA, mean±SD (n=6-9)", "protocol": "The efficacy of EPC-K was assayed in the mouse model of psoriasis vulgaris using 12-o-tetradecanoylphorbol-13-acetate (briefly TPA).\nMale 6-week-old ddY mice purchased from SLC Japan were used.\nThe entire external surface of the right auricle of each mouse was coated with 20 nmol/40 µl of TPA/methanol, and after 6, 24, 48 and 72 hours, the thickness of the auricle was measured with a dial thickness gauge. The ear swelling rate (%) was then calculated. At 72 hours after application of TPA, the mouse was sacrificed and the right and left auricles were respectively punched out with a 8 mm (dia.) punch. The epidermis of each auricle was peeled off and the epidermal weight was determined. Then, the % gain in epidermal weight of the right auricle relative to the left auricle was calculated.\nEach test substance was extemporaneously blended with TPA-methanol and 40 µl of the mixture was applied to the external surface of the right auricle of each mouse. Then, a methanolic solution of the corresponding test substance, 40 µl, was applied once daily for 2 days.\nDunnet's test was used for statistical efficacy evaluation of the test substance."}}, "data": [{"smiles": "Cc1c(C)c2c(c(C)c1OP(=O)(O)OC1=C(O)[C@@H]([C@@H](O)CO)OC1=O)CCC(C)(CCCC(C)CCCC(C)CCCC(C)C)O2", "note": "(mixture of isomers) [EPC-K, L-ascorbyl DL-α-tocopheryl phosphate potassium]", "values": [{"measurement": "LD50", "setting": "[1]; iv", "result": "≥ 100", "unit": "mg/kg"}, {"measurement": "LD50", "setting": "[1]; po", "result": "≥ 5000", "unit": "mg/kg"}, {"measurement": "inhibited the epidermal weight gain", "setting": "[2]; 500 µg/auricle", "result": 52.8, "unit": "%"}, {"measurement": "Epidermal weight % gain", "setting": "[2]; 500 µg/auricle", "result": "52.4±40.1", "unit": "%"}, {"measurement": "ear swelling rate", "setting": "[2]; 1000 µg/auricle, compared with 25 µg betamethasone valerate (Fig. 1)", "result": "more potent inhibitory effect"}, {"measurement": "inhibited the epidermal weight gain", "setting": "[2]; 1000 µg/auricle", "result": 80.3, "unit": "%"}, {"measurement": "Epidermal weight % gain", "setting": "[2]; 1000 µg/auricle", "result": "21.8±17.4", "unit": "%"}, {"measurement": "ear swelling rate", "setting": "[2]; 500 and 1000 µg/auricle, 6, 24, 48 and 72 hours after TPA (Fig. 1)", "result": "dose-dependent inhibitory effects at all points of time"}]}, {"smiles": "CCCCC(=O)O[C@]1(C(=O)CO)[C@@H](C)C[C@H]2[C@@H]3CCC4=CC(=O)C=C[C@]4(C)[C@@]3(F)[C@@H](O)C[C@@]21C", "note": "[Betamethasone valerate, reference compound]", "values": [{"measurement": "body weight (side effect)", "setting": "[2]; 25 µg/auricle", "result": "induced body weight loss"}, {"measurement": "ear swelling rate", "setting": "[2]; 25 µg/auricle, 6, 24, 48 and 72 hours after TPA (Fig. 1)", "result": "fairly potent efficacy but its effect had been attenuated by 24 and 48 hours after application"}, {"measurement": "inhibited the epidermal weight gain", "setting": "[2]; 25 µg/auricle", "result": 81.1, "unit": "%"}, {"measurement": "Epidermal weight % gain", "setting": "[2]; 25 µg/auricle", "result": "21.0±19.9", "unit": "%"}]}]}
